Test results reported in the supplement of paper PMC8671470.
Counter-ions that a name gives are not always drawn.

Assays:
Details in all cases: 72 h
BV-173 [1] = test system: BV-173
Summary of the method: (§1)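 Seeded in RPMI 1640 at densities within the linear growth range, fifteen myeloid leukaemia cell lines were dispensed into 384-well plates with acoustically pre-printed compounds spanning five tenfold doses from 1 to 10,000 nM, in duplicate. The plates were kept for 72 h at 37 °C in 5% CO2 before luminescent ATP viability was measured and normalised to vehicle and to a positive control at 10 µM. Curves were fitted with a four-parameter log-logistic model. The IC50 was taken from those curves.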

HEL [2] = test system: HEL
Summary of the method: as §1

HL-60 [3] = test system: HL-60
Summary of the method: as §1

K-562 [4] = test system: K-562
Summary of the method: as §1

KCL-22 [5] = test system: KCL-22
Summary of the method: as §1

KG-1 [6] = test system: KG-1
Summary of the method: as §1

KU-812 [7] = test system: KU-812
Summary of the method: as §1

LAMA-84 [8] = test system: LAMA-84
Summary of the method: as §1

ML-2 [9] = test system: ML-2
Summary of the method: as §1

MOLM-13 [10] = test system: MOLM-13
Summary of the method: as §1

MV4-11 [11] = test system: MV4-11
Summary of the method: as §1

Mono-Mac-6 [12] = test system: Mono-Mac-6
Summary of the method: as §1

NOMO-1 [13] = test system: NOMO-1
Summary of the method: as §1

SHI-1 [14] = test system: SHI-1
Summary of the method: as §1

THP-1 [15] = test system: THP-1
Summary of the method: as §1

BV-173 [16] = assay: cell viability (% survival relative to DMSO control, bortezomib = 0%); higher = less cytotoxic
Summary of the method: (§2)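 Fifteen myeloid leukaemia cell lines were exposed to compounds at 1, 10, 100, 1000 or 10000 nM in 384-well plates for 72 h at 37 °C and 5% CO2. Viability was read by CellTiter-Glo luminescence and normalised, with vehicle as 100% and a 10 µM positive control as 0%. Values are percent survival averaged over duplicates.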

HEL [17] = assay: as above
Summary of the method: as §2

HL-60 [18] = assay: as above
Summary of the method: as §2

K-562 [19] = assay: as above
Summary of the method: as §2

KCL-22 [20] = assay: as above
Summary of the method: as §2

KG-1 [21] = assay: as above
Summary of the method: as §2

KU-812 [22] = assay: as above
Summary of the method: as §2

LAMA-84 [23] = assay: as above
Summary of the method: as §2

ML-2 [24] = assay: as above
Summary of the method: as §2

MOLM-13 [25] = assay: as above
Summary of the method: as §2

MV4-11 [26] = assay: as above
Summary of the method: as §2

Mono-Mac-6 [27] = assay: as above
Summary of the method: as §2

NOMO-1 [28] = assay: as above
Summary of the method: as §2

SHI-1 [29] = assay: as above
Summary of the method: as §2

THP-1 [30] = assay: as above
Summary of the method: as §2

Cc1cc(CS(=O)(=O)c2ccccc2)cc(OCc2ccc(CN3CCC[C@@H]3CO)cc2)c1 [PF-543 hydrochloride]
Details	IC50 (cell viability) [µM]
BV-173 [1]	8.45
HEL [2]	> 10
HL-60 [3]	> 10
K-562 [4]	4.85
KCL-22 [5]	> 10
KG-1 [6]	> 10
KU-812 [7]	> 10
LAMA-84 [8]	> 10
ML-2 [9]	> 10
MOLM-13 [10]	> 10
MV4-11 [11]	> 10
Mono-Mac-6 [12]	> 10
NOMO-1 [13]	> 10
SHI-1 [14]	> 10
THP-1 [15]	> 10

cell viability [%]
Details	1 nM	10 nM	100 nM	1000 nM	10000 nM
BV-173 [16]	83.7	103	152	87.8	56.7
HEL [17]	92	88.6	105	88.1	94
HL-60 [18]	118	92.2	119	83.7	79.8
K-562 [19]	90.4	113	131	91.1	40.4
KCL-22 [20]	91.5	94.5	122	82.5	84.9
KG-1 [21]	92.1	102	114	111	84.3
KU-812 [22]	97.5	91.6	97.7	101	61
LAMA-84 [23]	108	91.9	103	93.9	71.5
ML-2 [24]	89.8	97.3	130	91	88.5
MOLM-13 [25]	72.9	110	88.8	117	79.6
MV4-11 [26]	83.5	104	119	103	65.5
Mono-Mac-6 [27]	89.6	84.7	101	89.8	82.9
NOMO-1 [28]	89.2	94.9	103	101	93
SHI-1 [29]	82.3	109	100	84.8	87.9
THP-1 [30]	89.7	95.5	111	94.8	96.5

CCOC(=O)c1ccc(-c2ccc(OC(=O)N(C)Cc3cccc(-c4ccncc4)c3)cc2)cc1 [WWL113]
Details	IC50 (cell viability) [µM]
BV-173 [1]	> 10
HEL [2]	> 10
HL-60 [3]	> 10
K-562 [4]	> 10
KCL-22 [5]	> 10
KG-1 [6]	> 10
KU-812 [7]	> 10
LAMA-84 [8]	> 10
ML-2 [9]	> 10
MOLM-13 [10]	> 10
MV4-11 [11]	> 10
Mono-Mac-6 [12]	> 10
NOMO-1 [13]	> 10
SHI-1 [14]	> 10
THP-1 [15]	> 10

cell viability [%]
Details	1 nM	10 nM	100 nM	1000 nM	10000 nM
BV-173 [16]	123	114	102	105	94.9
HEL [17]	134	99.2	91.9	104	99.6
HL-60 [18]	103	91.3	89.1	114	125
K-562 [19]	121	105	94	92.1	87.5
KCL-22 [20]	132	95.4	98.7	92.9	110
KG-1 [21]	99.2	93.4	92.7	94.3	107
KU-812 [22]	112	100	105	91.6	92
LAMA-84 [23]	113	104	94.8	114	101
ML-2 [24]	104	101	94.7	106	106
MOLM-13 [25]	120	122	97.3	85.8	105
MV4-11 [26]	129	101	105	103	93.3
Mono-Mac-6 [27]	108	112	102	94.2	109
NOMO-1 [28]	104	106	88.1	104	105
SHI-1 [29]	114	100	92	95.2	108
THP-1 [30]	114	101	95.2	101	102
